Test results taken from patent US9695119B2, “Methionine analogs and methods of using same” (Bioxiness Pharmaceuticals, Inc., priority 2008, dated 2017).
Where two headings read alike, the source gives them in different places.

How the values were obtained:
Ps. sturtzeri = test: Broad spectrum bacterial growth inhibition, 96-well plate, M9 media; format: cell-based
Description: (§1) Table 2 and FIG. 2 summarizes a series of studies, which were performed to test eradication of bacterial growth using various species (representative strains of gram positive and gram negative microorganisms commonly associated with wound infection). A 96-well plate format was used to culture different bacteria in M9 minimal media supplemented with glucose (M9) or same media supplemented with a range of concentrations of various analogues (Methionine, I-AA and I-AB). Experiments were carried out in duplicate.

S. aureus = test: as above; format: cell-based
Description: as §1

S. epidermids = test: as above; format: cell-based
Description: as §1

B. subtillus = test: as above; format: cell-based; set-up: unit not given here
Description: as §1

E. coli = test: as above; format: cell-based; set-up: unit not given here
Description: as §1

P. aeruginosa = test: as above; format: cell-based; set-up: unit not given here
Description: as §1

[1] = test system: CV-1 (African Green Monkey Kidney Cells) cells; settings: 60 min, pH 7
Description: Preliminary studies of cytotoxicity were performed in a mammalian cell viability assay.
CV-1 cells were propagated in DMEM plus 8% FBS according to supplier's recommendations. CV-1 cells were seeded at 1.5×10^4 cells per well in 96-well plates and incubated overnight at 37° C. On the day of testing, growth medium was aspirated from each well, and 20 μl fresh medium was added per well. Test articles were diluted from 50 mM to 0.05 mM by 2-fold serial dilution using PBS at pH 7.0 for each test article. After which 80 μl of each dilution was added to each well for a total volume of 100 μl per well. Following 60 minutes exposure at 37° C., test articles were aspirated and replaced with fresh 100 μl tissue culture media and incubated for 24 hours at 37° C. Next day cell culture media was removed and cell viability was determined by addition of WST-8 (Dojindo, Japan) reagent and the absorption at 450 nm read spectrophotometrically. Orange-red formazan, which is produced by live cells, is a direct measure of cell viability in this assay.
(§2) Results are expressed as percentage of cells surviving the treatment as compared to PBS.

L929 cells = settings: mouse, 60 min
Description: Cytotoxicity is assessed by a colorimetric assay system (Sagripanti J-L, Bonifacino A. Cytotoxicity of Liquid Disinfectants. Surgical Infections, 2000; 1(1): 3-14, the content of which is hereby incorporated by reference, particularly with respect to the experimental methods described therein), using 3′-(phenylamino-carbonyl)-3,4-tetrazo-lium-bis(4-methoxy-6-nitro) benzene sulfonic acid hydrate (XTT), ProCheck™ cell viability assay (Evaluation of a soluble tetrazolium/formazan assay for cell growth and drug sensitivity in culture using human and other tumor cell lines described by Scudiero D A, Shoemaker R A H, Paul K D, Monks A, Tierney S, Nofziger T H, Currens M J, Seniff D, Boyd M R. Cancer Res. 1988 Sep. 1; 48(17):4827-33, the content of which is hereby incorporated by reference, particularly with respect to the experimental methods described therein). Similar approaches for determining the cell viability are used by other investigators. Three cell types are used: […] (L929), primary human skin fibroblast and primary human keratinocyte cells cultured in Dulbecco Modified Eagle's Medium and Keratinocyte defined medium with corresponding growth factors plus antibiotics. Cells are trypsinized and counted under the microscope and seeded at 1000-to-2000 cells per well of a flat-bottom 96-well plate. Cells are allowed to grow overnight at 37° C. Tissue culture media is removed the following day and cells are rinsed with fresh media 1× and then left in 50 μL of tissue culture media. Test articles are prepared as 2-fold dilutions and 200 μL is added into each set of 4-wells (total volume per well is 250 μL). Cells are exposed to test articles for 60 min at room temperature. Immediately after the exposed time, test article from each well is removed and cells are fed with 250 μL of fresh media. Plates are incubated at 37° C. for 18-20 hr. The following day media is removed again and replaced with 100 μL/well of fresh media containing 10/100 μL XTT-reagent. Cells are incubated under growth conditions (5% CO2 at 37° C. humidified incubator), protected from light, until color development is achieved. Absorbance is read at 450 nm with reference wavelength at 750 nm using Molecular Device ThermoMax Plate reader, blanking the plate on the medium-only assay blank wells. Untreated cells receiving XTT reagents-only serve as positive cell proliferation control.
as §2

CSCC[C@H](NC(=O)CN)C(=O)NO.Cl [I-AB, (S)-2-(2-aminoacetamido)-N-hydroxy-4-(methylthio)butanamide hydrochloride]
Broad Spectrum Bacterial Growth Inhibition Data, Ps. sturtzeri (Ps. sturtzeri; Conc. 0.0, well 4, M9 media): 0.5 | Broad Spectrum Bacterial Growth Inhibition Data, Ps. sturtzeri (Ps. sturtzeri; Conc. 0.1, well 5, M9 media): 0.5 | Broad Spectrum Bacterial Growth Inhibition Data, Ps. sturtzeri (Ps. sturtzeri; Conc. 0.2, well 6, M9 media): 0.3 | Broad Spectrum Bacterial Growth Inhibition Data, Ps. sturtzeri (Ps. sturtzeri; Conc. 0.4, well 7, M9 media): 0.3 | Broad Spectrum Bacterial Growth Inhibition Data, Ps. sturtzeri (Ps. sturtzeri; Conc. 0.8, well 8, M9 media): 0.2 | Broad Spectrum Bacterial Growth Inhibition Data, Ps. sturtzeri (Ps. sturtzeri; Conc. 1.6, well 9, M9 media): 0.2 | Broad Spectrum Bacterial Growth Inhibition Data, Ps. sturtzeri (Ps. sturtzeri; Conc. 3.1, well 10, M9 media): 0.2 | Broad Spectrum Bacterial Growth Inhibition Data, Ps. sturtzeri (Ps. sturtzeri; Conc. 6.3, well 11, M9 media): 0.2 | Broad Spectrum Bacterial Growth Inhibition Data, Ps. sturtzeri (Ps. sturtzeri; Conc. 12.5, well 12, M9 media): 0.2 | Broad Spectrum Bacterial Growth Inhibition Data, S. aureus (S. aureus; Conc. 0.0, well 4, M9 media): 0.6 | Broad Spectrum Bacterial Growth Inhibition Data, S. aureus (S. aureus; Conc. 0.1, well 5, M9 media): 0.6 | Broad Spectrum Bacterial Growth Inhibition Data, S. aureus (S. aureus; Conc. 0.2, well 6, M9 media): 0.5 | Broad Spectrum Bacterial Growth Inhibition Data, S. aureus (S. aureus; Conc. 0.4, well 7, M9 media): 0.5 | Broad Spectrum Bacterial Growth Inhibition Data, S. aureus (S. aureus; Conc. 0.8, well 8, M9 media): 0.5 | Broad Spectrum Bacterial Growth Inhibition Data, S. aureus (S. aureus; Conc. 1.6, well 9, M9 media): 0.4 | Broad Spectrum Bacterial Growth Inhibition Data, S. aureus (S. aureus; Conc. 3.1, well 10, M9 media): 0.2 | Broad Spectrum Bacterial Growth Inhibition Data, S. aureus (S. aureus; Conc. 6.3, well 11, M9 media): 0.1 | Broad Spectrum Bacterial Growth Inhibition Data, S. aureus (S. aureus; Conc. 12.5, well 12, M9 media): 0.1 | Broad Spectrum Bacterial Growth Inhibition Data, S. epidermids (S. epidermids; Conc. 0.0, well 4, M9 media): 0.7 | Broad Spectrum Bacterial Growth Inhibition Data, S. epidermids (S. epidermids; Conc. 0.1, well 5, M9 media): 0.7 | Broad Spectrum Bacterial Growth Inhibition Data, S. epidermids (S. epidermids; Conc. 0.2, well 6, M9 media): 0.6 | Broad Spectrum Bacterial Growth Inhibition Data, S. epidermids (S. epidermids; Conc. 0.4, well 7, M9 media): 0.3 | Broad Spectrum Bacterial Growth Inhibition Data, S. epidermids (S. epidermids; Conc. 0.8, well 8, M9 media): 0.2 | Broad Spectrum Bacterial Growth Inhibition Data, S. epidermids (S. epidermids; Conc. 1.6, well 9, M9 media): 0.2 | Broad Spectrum Bacterial Growth Inhibition Data, S. epidermids (S. epidermids; Conc. 3.1, well 10, M9 media): 0.1 | Broad Spectrum Bacterial Growth Inhibition Data, S. epidermids (S. epidermids; Conc. 6.3, well 11, M9 media): 0.1 | Broad Spectrum Bacterial Growth Inhibition Data, S. epidermids (S. epidermids; Conc. 12.5, well 12, M9 media): 0.1 | Broad Spectrum Bacterial Growth Inhibition Data, B. subtillus (B. subtillus; Conc. 0.0, well 4, M9 media): 0.5 | Broad Spectrum Bacterial Growth Inhibition Data, B. subtillus (B. subtillus; Conc. 0.1, well 5, M9 media): 0.5 | Broad Spectrum Bacterial Growth Inhibition Data, B. subtillus (B. subtillus; Conc. 0.2, well 6, M9 media): 0.4 | Broad Spectrum Bacterial Growth Inhibition Data, B. subtillus (B. subtillus; Conc. 0.4, well 7, M9 media): 0.4 | Broad Spectrum Bacterial Growth Inhibition Data, B. subtillus (B. subtillus; Conc. 0.8, well 8, M9 media): 0.2 | Broad Spectrum Bacterial Growth Inhibition Data, B. subtillus (B. subtillus; Conc. 1.6, well 9, M9 media): 0.2 | Broad Spectrum Bacterial Growth Inhibition Data, B. subtillus (B. subtillus; Conc. 3.1, well 10, M9 media): 0.2 | Broad Spectrum Bacterial Growth Inhibition Data, B. subtillus (B. subtillus; Conc. 6.3, well 11, M9 media): 0.2 | Broad Spectrum Bacterial Growth Inhibition Data, B. subtillus (B. subtillus; Conc. 12.5, well 12, M9 media): 0.2 | Broad Spectrum Bacterial Growth Inhibition Data, E. coli (E. coli; Conc. 0.0, well 4, M9 media): 0.4 | Broad Spectrum Bacterial Growth Inhibition Data, E. coli (E. coli; Conc. 0.1, well 5, M9 media): 0.4 | Broad Spectrum Bacterial Growth Inhibition Data, E. coli (E. coli; Conc. 0.2, well 6, M9 media): 0.4 | Broad Spectrum Bacterial Growth Inhibition Data, E. coli (E. coli; Conc. 0.4, well 7, M9 media): 0.4 | Broad Spectrum Bacterial Growth Inhibition Data, E. coli (E. coli; Conc. 0.8, well 8, M9 media): 0.5 | Broad Spectrum Bacterial Growth Inhibition Data, E. coli (E. coli; Conc. 1.6, well 9, M9 media): 0.4 | Broad Spectrum Bacterial Growth Inhibition Data, E. coli (E. coli; Conc. 3.1, well 10, M9 media): 0.2 | Broad Spectrum Bacterial Growth Inhibition Data, E. coli (E. coli; Conc. 6.3, well 11, M9 media): 0.2 | Broad Spectrum Bacterial Growth Inhibition Data, E. coli (E. coli; Conc. 12.5, well 12, M9 media): 0.2 | Broad Spectrum Bacterial Growth Inhibition Data, P. aeruginosa (P. aeruginosa; Conc. 0.0, well 4, M9 media): 1.1 | Broad Spectrum Bacterial Growth Inhibition Data, P. aeruginosa (P. aeruginosa; Conc. 0.1, well 5, M9 media): 1.0 | Broad Spectrum Bacterial Growth Inhibition Data, P. aeruginosa (P. aeruginosa; Conc. 0.2, well 6, M9 media): 1.0 | Broad Spectrum Bacterial Growth Inhibition Data, P. aeruginosa (P. aeruginosa; Conc. 0.4, well 7, M9 media): 1.0 | Broad Spectrum Bacterial Growth Inhibition Data, P. aeruginosa (P. aeruginosa; Conc. 0.8, well 8, M9 media): 1.0 | Broad Spectrum Bacterial Growth Inhibition Data, P. aeruginosa (P. aeruginosa; Conc. 1.6, well 9, M9 media): 1.0 | Broad Spectrum Bacterial Growth Inhibition Data, P. aeruginosa (P. aeruginosa; Conc. 3.1, well 10, M9 media): 1.0 | Broad Spectrum Bacterial Growth Inhibition Data, P. aeruginosa (P. aeruginosa; Conc. 6.3, well 11, M9 media): 0.1 | Broad Spectrum Bacterial Growth Inhibition Data, P. aeruginosa (P. aeruginosa; Conc. 12.5, well 12, M9 media): 0.1 | Percentage of Surviving CV-1 cells relative to PBS ([1]; 0.1 mM): 97% | Percentage of Surviving CV-1 cells relative to PBS ([1]; 0.2 mM): 94% | Percentage of Surviving CV-1 cells relative to PBS ([1]; 0.39 mM): 97% | Percentage of Surviving CV-1 cells relative to PBS ([1]; 0.78 mM): 97% | Percentage of Surviving CV-1 cells relative to PBS ([1]; 1.56 mM): 98% | Percentage of Surviving CV-1 cells relative to PBS ([1]; 3.13 mM): 100% | Percentage of Surviving CV-1 cells relative to PBS ([1]; 6.25 mM): 100% | Percentage of Surviving CV-1 cells relative to PBS ([1]; 12.5 mM): 101% | Percentage of Surviving CV-1 cells relative to PBS ([1]; 25 mM): 100% | Percentage of Surviving CV-1 cells relative to PBS ([1]; 50 mM): 60% | Percentage of Surviving L929 cells relative to control (L929 cells; 0.1 mM): 99% | Percentage of Surviving L929 cells relative to control (L929 cells; 0.2 mM): 92% | Percentage of Surviving L929 cells relative to control (L929 cells; 0.39 mM): 88% | Percentage of Surviving L929 cells relative to control (L929 cells; 0.78 mM): 90% | Percentage of Surviving L929 cells relative to control (L929 cells; 1.56 mM): 89% | Percentage of Surviving L929 cells relative to control (L929 cells; 3.13 mM): 86% | Percentage of Surviving L929 cells relative to control (L929 cells; 6.25 mM): 88% | Percentage of Surviving L929 cells relative to control (L929 cells; 12.5 mM): 89% | Percentage of Surviving L929 cells relative to control (L929 cells; 25 mM): 92% | Percentage of Surviving L929 cells relative to control (L929 cells; 50 mM): 75%
